For 15 molecules, IC50 results are on record in patent US20240376099A1, “COMPOUNDS AND COMPOSITIONS AS INHIBITORS OF ENDOSOMAL TOLL-LIKE RECEPTORS” (Novartis AG, priority 2016, published 2024).

In this assay the target is T1, TLR8 (Homo sapiens, UniProt Q9NR97).
T1 sequence (Q9NR97 27-1041): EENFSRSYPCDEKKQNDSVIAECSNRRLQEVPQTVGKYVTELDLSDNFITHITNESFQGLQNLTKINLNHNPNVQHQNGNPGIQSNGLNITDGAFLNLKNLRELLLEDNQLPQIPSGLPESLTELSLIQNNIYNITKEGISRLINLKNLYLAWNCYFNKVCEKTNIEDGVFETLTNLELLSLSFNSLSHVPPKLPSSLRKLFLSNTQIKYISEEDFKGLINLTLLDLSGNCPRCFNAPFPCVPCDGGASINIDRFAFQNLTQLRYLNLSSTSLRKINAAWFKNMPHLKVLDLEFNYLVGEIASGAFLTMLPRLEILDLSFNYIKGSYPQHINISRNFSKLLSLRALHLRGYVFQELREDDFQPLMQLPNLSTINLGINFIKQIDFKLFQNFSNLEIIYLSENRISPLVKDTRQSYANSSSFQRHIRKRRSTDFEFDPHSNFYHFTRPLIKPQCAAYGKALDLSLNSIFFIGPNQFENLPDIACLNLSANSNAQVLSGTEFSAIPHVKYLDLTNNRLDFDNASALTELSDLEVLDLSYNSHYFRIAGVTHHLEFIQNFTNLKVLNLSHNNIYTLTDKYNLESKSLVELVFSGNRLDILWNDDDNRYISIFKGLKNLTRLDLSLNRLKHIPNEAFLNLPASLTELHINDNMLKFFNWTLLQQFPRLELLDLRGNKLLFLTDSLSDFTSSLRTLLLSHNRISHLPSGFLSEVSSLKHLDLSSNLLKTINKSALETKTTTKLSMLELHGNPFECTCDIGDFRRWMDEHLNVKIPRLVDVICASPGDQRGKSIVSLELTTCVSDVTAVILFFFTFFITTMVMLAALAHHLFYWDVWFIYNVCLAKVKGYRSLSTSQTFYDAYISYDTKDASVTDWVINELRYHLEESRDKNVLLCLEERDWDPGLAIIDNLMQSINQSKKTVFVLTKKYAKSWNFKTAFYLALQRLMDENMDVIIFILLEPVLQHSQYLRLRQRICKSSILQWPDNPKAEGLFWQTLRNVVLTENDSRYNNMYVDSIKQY
Briefly: huPBMC TLR8 Antagonist IL-6 TR-FRET Assay. Particulars: human PBMCs stimulated with ssRNA40 1 μg/ml (DOTAP), 14-16 hrs; IL-6 TR-FRET read-out. It is filed as cell-based. The arrangement: Fresh blood was collected from normal human donors; endogenous in cells; host or cells: human PBMCs from fresh donor blood. As to the method:
Compounds were generally serially diluted (1/3) in DMSO and plated on sterile 384 well tissue culture plates and stored until ready for use. Each ten-point dilution was typically plated in triplicate in parallel rows.
Fresh blood was collected from normal human donors underwritten informed consent in heparinized syringes on the morning of the assay. The blood was diluted in RPMI-1640 medium and the white blood cells were separated from red blood cells by centrifugation (800 g 15′ 0 acceleration, 0 brake) on a Ficoll cushion. Peripheral blood mononuclear cells (PBMCs) were separated from platelets by a series of low-speed centrifugations (1000RPM 10′) in PBS+5% HI—FBS and 1 mM EDTA. Purified PBMCs were re-suspended in assay medium (RPMI-1640 w Glutamax (Invitrogen) supplemented with 5% HI—FBS, 10 mM HEPES, 50 uM β-mercaptoethanol, and 100 mG/L penicillin/streptomycin cocktail). Viable PBMCs were counted on a hemacytometer and kept on ice until ready for plating.
A 4× concentration (4 ug/ml or 40 ug/ml for TLR8 or TLR7 assays, respectively) of the TLR7/8 agonist ssRNA40 (IDT) was complexed with 10% DOTAP (Roche) in assay medium for 30 min prior to addition to the PBMC suspension (5 million cells/ml). After addition, the final concentration of ssRNA40 in the TLR7/8 stimulated PBMC suspension was 1 μg/ml for TLR8 assay, and 10 μg/mL for the TLR7 assay. The final DOTAP concentration was 2.5%. Diluted PBMCs (5 million cells/ml) were treated with 4×TLR9 agonist ODN2216 (Invivogen). Final concentration of ODN2216 in TLR9 stimulated PBMC suspension was 0.3 μM.
Agonist stimulated PBMCs were plated on the compound treated 384 well plates at 150,000 cells/well. Un-stimulated PBMCs were plated as controls on each plate. Plating volume was 40 μL per well. DMSO concentration in each well was 0.25%.
A separate plate, without compounds, with titrations of ssRNA40 and ODN2216 was included in every assay to measure agonist response of each donor's PBMC prep. Assay plates were placed in a tissue culture incubator (37° C., 5% CO2) for 14-16 hrs. After this incubation, the plates were centrifuged and stored at −20° C. until they were assayed.
IL-6 TR-FRET Assay for TLR8 activity: • 1) Cisbio Human IL-6 kit, 20,000 tests (62TNFPEC), and GNF High-Base TC 384 well plates (cat #789163G) were used; • 2) the Anti-TIL-6 Cryptate conjugate and the Anti-IL-6 XL665 conjugate were diluted 1:20 in Reconstitution Buffer; • 3) a 1:1 mixture of 3 μl/well Anti-IL-6 Cryptate conjugate and 3 μl/well Anti-IL-6 XL665 conjugate was prepared; • 4) 6 μl/well HTRF dilution mastermix was added to 6 μl of transferred supernatant samples in proxiplates; • 5) The plates were incubated for 3 hrs at rt in the dark; and • 6) the levels of IL-6 production was measured using an Envision plate reader (665 nm (emmission)/590 nm (excitation)) with HTRF settings and ratiometric read-out: (XL665 emission/Eu Cryptate emission)×10,000. IFNα2b AlphaLISA Assay for TLR7 or TLR9 activity After thawing the assay plates, 6 μL of supernatant samples were transferred to a low-volume AlphaPlate 384SW (Perkin-Elmer). The concentration of IFNα in supernatants was measured using the IFNα2b AlphaLISA Assay (Perkin-Elmer: AL297F). 3 μL of IFNα acceptor beads/biotinylated antibody solution was added first, using laboratory automation. After an hour incubation, […] of streptavidin […] bead solution was added. The plates containing this mixture were incubated in the dark for an hour and read on an appropriate plate reader at reading parameters set by the manufacturer. (Envision, EnSpire: Perkin-Elmer).
For orientation: Time-resolved FRET reads energy transfer from a long-lived donor to a nearby acceptor.
Turning to `Cc1cc(N2CCc3c(c(C)nn3CC34CCC(N)(CC3)CC4)C2)cc(-c2ccccc2)n1` [compound 93, 4-((3-methyl-5-(2-methyl-6-phenylpyridin-4-yl)-4,5,6,7-tetrahydro-1H-pyrazolo[4,3-c]pyridin-1-yl)methyl)bicyclo[2.2.2]octan-1-amine], the IC50 was 983 nM.

For the molecule `Cc1cc(N2CCc3c(c(C)nn3CC34CCC(N5CCS(=O)(=O)CC5)(CC3)CC4)C2)c2cnn(C)c2n1` [compound 66, 4-(4-((5-(1,6-dimethyl-1H-pyrazolo[3,4-b]pyridin-4-yl)-3-methyl-4,5,6,7-tetrahydro-1H-pyrazolo[4,3-c]pyridin-1-yl)methyl)bicyclo[2.2.2]octan-1-yl)thiomorpholine 1,1-dioxide], the IC50 came to 1130 nM.

Take `Cc1cc(N2CCc3c(c(C)nn3CC34CCC(N5CCCCC5)(CC3)CO4)C2)c2cnn(C)c2n1` [compound 95, 5-(1,6-dimethyl-1H-pyrazolo[3,4-b]pyridin-4-yl)-3-methyl-1-((4-(piperidin-1-yl)-2-oxabicyclo[2.2.2]octan-1-yl)methyl)-4,5,6,7-tetrahydro-1H-pyrazolo[4,3-c]pyridine]: the IC50 stood at 85 nM.

With `COc1ccc(-c2cc(N3CCc4c(c(C)nn4CC45CCC(N)(CC4)CC5)C3)ccn2)cc1` [compound 89, 4-((5-(2-(4-methoxyphenyl)pyridin-4-yl)-3-methyl-4,5,6,7-tetrahydro-1H-pyrazolo[4,3-c]pyridin-1-yl)methyl)bicyclo[2.2.2]octan-1-amine], the IC50 came out at 622 nM.

For `Cc1nc(N2CCc3c(c(C)nn3CC34CCC(N)(CC3)CC4)C2)c2cc[nH]c2n1` [Compound No. 4, 4-((3-methyl-5-(2-methyl-7H-pyrrolo[2,3-d]pyrimidin-4-yl)-4,5,6,7-tetrahydro-1H-pyrazolo[4,3-c]pyridin-1-yl)methyl)bicyclo[2.2.2]octan-1-amine], the IC50 is 511 nM.

As for `Cc1ccc(-c2cc(N3CCc4c(c(C)nn4CC45CCC(N)(CC4)CC5)C3)ccn2)cc1` [compound 90, 4-((3-methyl-5-(2-(p-tolyl)pyridin-4-yl)-4,5,6,7-tetrahydro-1H-pyrazolo[4,3-c]pyridin-1-yl)methyl)bicyclo[2.2.2]octan-1-amine], the IC50 came out at 1010 nM.

Turning to `COCCN(C)C12CCC(Cn3nc(C)c4c3CCN(c3cc(C)nc5c3cnn5C)C4)(CC1)CC2` [Compound No. 73, 4-((5-(1,6-dimethyl-1H-pyrazolo[3,4-b]pyridin-4-yl)-3-methyl-4,5,6,7-tetrahydro-1H-pyrazolo[4,3-c]pyridin-1-yl)methyl)-N-(2-methoxyethyl)-N-methylbicyclo[2.2.2]octan-1-amine], the IC50 amounted to 139 nM.

In the case of `Cc1nn(CC23CCC(N)(CC2)CC3)c2c1CN(c1ccnc(-c3ccccn3)c1)CC2` [compound 94, 4-((5-([2,2'-bipyridin]-4-yl)-3-methyl-4,5,6,7-tetrahydro-1H-pyrazolo[4,3-c]pyridin-1-yl)methyl)bicyclo[2.2.2]octan-1-amine], the IC50 came out at 1110 nM.

Turning to `COCCN(CCOC)C12CCC(Cn3nc(C)c4c3CCN(c3cc(C)nc5c3cnn5C)C4)(CC1)CC2` [Compound No. 70, 4-((5-(1,6-dimethyl-1H-pyrazolo[3,4-b]pyridin-4-yl)-3-methyl-4,5,6,7-tetrahydro-1H-pyrazolo[4,3-c]pyridin-1-yl)methyl)-N,N-bis(2-methoxyethyl)bicyclo[2.2.2]octan-1-amine], the IC50 was found to be 379 nM.

For the molecule `Cc1cc(N2CCc3c(c(C)nn3CC34CCC(N5CCCC5)(CC3)CO4)C2)c2cnn(C)c2n1` [compound 82, 5-(1,6-dimethyl-1H-pyrazolo[3,4-b]pyridin-4-yl)-3-methyl-1-((4-(pyrrolidin-1-yl)-2-oxabicyclo[2.2.2]octan-1-yl)methyl)-4,5,6,7-tetrahydro-1H-pyrazolo[4,3-c]pyridine], the half-inhibitory concentration (IC50) was found to be 486 nM.

As to `Cc1cc(N2CCc3c(c(C)nn3CC34CCC(N(C)C(C)C)(CC3)CC4)C2)c2cnn(C)c2n1` [compound 78, 4-((5-(1,6-dimethyl-1H-pyrazolo[3,4-b]pyridin-4-yl)-3-methyl-4,5,6,7-tetrahydro-1H-pyrazolo[4,3-c]pyridin-1-yl)methyl)-N-isopropyl-N-methylbicyclo[2.2.2]octan-1-amine], the half-maximal inhibitory concentration (IC50) came to 474 nM.

As to `Cc1cc(N2CCc3c(c(C)nn3CC34CCC(N5CC(O)C5)(CC3)CC4)C2)c2cnn(C)c2n1` [compound 68, 1-(4-((5-(1,6-dimethyl-1H-pyrazolo[3,4-b]pyridin-4-yl)-3-methyl-4,5,6,7-tetrahydro-1H-pyrazolo[4,3-c]pyridin-1-yl)methyl)bicyclo[2.2.]octan-1-yl)azetidin-3-ol], the half-inhibitory concentration (IC50) amounted to 155 nM.

As to `Cc1nn(CC23CCC(N)(CC2)CC3)c2c1CN(c1ccnc(-c3ccc(F)cc3)c1)CC2` [compound 87, 4-((5-(2-(4-fluorophenyl)pyridin-4-yl)-3-methyl-4,5,6,7-tetrahydro-1H-pyrazolo[4,3-c]pyridin-1-yl)methyl)bicyclo[2.2.2]octan-1-amine], the IC50 turned out to be 1100 nM.

Turning to `Cc1cc(N2CCc3c(c(C)nn3CC34CCC(NCC(=O)N(C)C)(CC3)CC4)C2)c2cnn(C)c2n1` [Compound No. 76, 2-((4-((5-(1,6-dimethyl-1H-pyrazolo[3,4-b]pyridin-4-yl)-3-methyl-4,5,6,7-tetrahydro-1H-pyrazolo[4,3-c]pyridin-1-yl)methyl)bicyclo[2.2.2]octan-1-yl)amino)-N,N-dimethylacetamide], the concentration for half-maximal inhibition (IC50) stood at 201 nM.

In the case of `CCn1ncc2c(N3CCc4c(c(C)nn4CC45CCC(N)(CC4)CC5)C3)cc(C)nc21` [compound 150, 4-((5-(1-ethyl-6-methyl-1H-pyrazolo[3,4-b]pyridin-4-yl)-3-methyl-4,5,6,7-tetrahydro-1H-pyrazolo[4,3-c]pyridin-1-yl)methyl)bicyclo[2.2.2]octan-1-amine], the IC50 is 4200 nM.

For orientation: IC50 means the concentration that inhibits the measured activity by half.
